Results from patent US20250154088A1, “PRODUCT 1,3-BUTYLENE GLYCOL” (KH Neochem Co., Ltd., priority 2022, published 2025).

Tested on: cysteine-containing peptide for DPRA
Assay: Skin sensitization test (direct peptide reactivity assay, DPRA)
Conditions: HPLC after 72±2 hours, relative value with result of Comparative Example 1 regarded as 100
Source text: The product 1, 3-butylene glycol in the present embodiment causes less skin sensitization. Here, the skin sensitization refers to the occurrence of an allergic reaction after the product 1, 3-butylene glycol comes into contact with the skin. In the evaluation of skin sensitization, it has been normal to use experimental animals, but the direct peptide reactivity assay (DPRA), which is an in Chemico test, was adopted as an alternative test in OECD guideline TG442C in 2015 from the viewpoint of animal welfare, and, in the present embodiment as well, the skin sensitization is evaluated by a test in which DPRA is used. In more detail, the skin sensitization is evaluated according to a method described in examples to be described below.
The product 1, 3-butylene glycols obtained in Examples 1 to 3 and Comparative Example 1 were evaluated for skin sensitization according to the following method.
15 mg of cysteine-containing peptide for DPRA manufactured by Scrum Inc. and 30 mL of a 0.05 M phosphate buffer were mixed together, thereby preparing a 0.05 M phosphate buffer solution containing 0.667 mM of the peptide (hereinafter, peptide solution). After one hour elapsed from the preparation of the peptide solution, 750 μL of the peptide solution and 250 μL of acetonitrile were put into each of three brown sample bottles for HPLC, thereby preparing three reference solutions. After two hours elapsed from the preparation of the reference solutions, 750 μL of the peptide solution, 200 μL of acetonitrile and 50 μL of 1, 3-butylene glycol were put into a separate brown sample bottle for HPLC, thereby preparing a specimen solution (specimen solution 1). Furthermore, after four hours elapsed and six hours elapsed from the preparation of the reference solutions, specimen solutions were prepared by the same operation (specimen solution 2 and specimen solution 3). Each of the three reference solutions and the specimen solutions (specimen solution 1, specimen solution 2 and specimen solution 3) was measured by an HPLC analysis after 72±2 hours elapsed from the preparation of each solution, and the three-time average value of the peak heights of peptide in each of the reference solutions and the specimen solutions was calculated. A peptide reduction percentage was calculated from the calculated three-time average value using the following formula (3) and regarded as an evaluation result.
In the present test, a specimen solution of the product 1, 3-butylene glycol of Comparative Example 1 that served as a reference and a specimen solution of the product 1, 3-butylene glycol of each of Examples 1 to 3 were each tested on the same day from the viewpoint of reproducibility.
Analysis device: Agilent 1260 InfinityII manufactured by Agilent Technologies, Inc. […]

Q: Which “Relative value of peptide reduction percentage” value does the source give for `CC(O)CCO` (centres unmarked) [Example 2, 1,3-butylene glycol] here?
A: 43

Q: For `CC(O)CCO` (centres unmarked) [Example 3, 1,3-butylene glycol], which “Relative value of peptide reduction percentage” value is on record?
A: 22

Q: Which “Relative value of peptide reduction percentage” value does the source give for `CC(O)CCO` (centres unmarked) [Example 1, 1,3-butylene glycol] here?
A: 45

Q: For `CC(O)CCO` (centres unmarked) [Comparative Example 1, 1,3-butylene glycol], which “Relative value of peptide reduction percentage” value is on record?
A: 100

Tested on: not listed separately
Assay: Basic coloration test
Type: physicochemical
Conditions: with water and potassium hydroxide, heat treatment at 90° C. for one hour, cooled to room temperature; spectral colorimeter
Source text: The product 1, 3-butylene glycol in the present embodiment has an advantage of not easily coloring under a basic condition. Coloration under a basic condition can be evaluated by a method described in examples to be described below (basic coloration test). The color saturation (b*) of the CIE color space (JIS Z 8729) when the product 1, 3-butylene glycol of the present embodiment has been evaluated by the method is not particularly limited; however, for example, the average value of three times of measurement is preferably 4.0 or less, more preferably 3.8 or less and particularly preferably 3.5 or less.
The product 1, 3-butylene glycols obtained in Examples 1 to 3 and Comparative Example 1 were evaluated for coloration under a basic condition according to the following method.
13 g of water and 2 g of potassium hydroxide were added to a 100 mL heat-resistant medium bottle and mixed together, and 6 g of the product 1, 3-butylene glycol, which was a subject, was further added thereto. Next, the heat-resistant medium bottle was immersed in a water bath, and a heat treatment was performed at 90° C. for one hour. After the solution that had been subjected to the heat treatment was cooled to room temperature, the color saturation (b*) of the solution was measured with a spectral colorimeter SE2000 manufactured by Nippon Denshoku Industries Co., Ltd. and regarded as a grade.

Q: Which “Color saturation (b*)” value does the source give for `CC(O)CCO` (centres unmarked) [Example 2, 1,3-butylene glycol] here?
A: 3.2

Q: For `CC(O)CCO` (centres unmarked) [Example 3, 1,3-butylene glycol], which “Color saturation (b*)” value is on record?
A: 0.7

Q: With `CC(O)CCO` (centres unmarked) [Example 1, 1,3-butylene glycol] as the compound, how does the “Color saturation (b*)” value read?
A: 2.8

Q: For `CC(O)CCO` (centres unmarked) [Comparative Example 1, 1,3-butylene glycol], which “Color saturation (b*)” value is on record?
A: 19.6
